Patent publication US20110288042A1, “STABLE HIGHLY PURE AZACITIDINE AND PREPARATION METHODS THEREFOR” (CHEMAGIS LTD., priority 2007, published 2011)
Read-outs that look alike come from different tables or passages of the source.

Legend:
[1] = Solution stability of 5-azacytidine in the HPLC diluent; format: physicochemical
Description: (§1) The HPLC measurements were performed using a system equipped with an Inertsil C18 column (ODS-2, 5 microns, 250×4.6 mm (ODS-167)). Other parameters of the system were as follows: • Detection: UV detector operated on 242 nm • Column temperature: 20° C. • Run time: 45 minutes • Injection volume: 10 μl • Flow rate: 1.0 ml/minute • Sample set temperature: 5° C. • Sample concentration: about 1.65 mg/ml • Diluent: Mixture of 30% 10 mM ammonium acetate and 70% THF
(§2) Analyses were performed using the following mobile phase • Mobile Phase (Eluent) A: 10 mM ammonium acetate • Mobile Phase (Eluent) B: 60% 10 mM ammonium acetate, 40% MeOH

[2] = cited from earlier work
[3] = Induced degradation of 5-azacytidine in liquid state (HPLC); format: physicochemical
Description: as §1, §2
Acidic hydrolysis—blank preparation: Hydrochloric acid (5 ml, 0.01M HCl) was diluted to 10 ml with the diluent. […] An aliquot (5 ml) was diluted to 10 ml with the diluent. The blank preparation and sample preparation were injected to the HPLC system by using the chromatographic conditions as mentioned in example 8. • Basic hydrolysis—blank preparation: Sodium hydroxide (5 ml, 0.01M NaOH) was diluted to 10 ml with the diluent. […] An aliquot (5 ml) was diluted to 10 ml with diluent. […] An aliquot (5 ml) was diluted to 10 ml with the diluent. The blank and sample preparations were injected to the HPLC system using the chromatographic conditions as detailed in example 8. • Photolysis—blank preparation: The diluent (50 ml) was mixed under UV light for 48 hours. […] The blank preparation and sample preparation were injected to the HPLC system using the chromatographic conditions as mentioned in example 8.

[4] = Solution stability of 5-azacytidine in water; format: physicochemical; details: for Area (%) at RRT 1.00 (5-azacytidine) / Area (%) of peak at RRT 0.63 / Area (%) of peak at RRT 2.01 / Total impurities by % area / Area (%) of peak at RRT 1.70: water, about 1.65 mg/ml
Description: as §1, §2
Samples were withdrawn from the flask every consecutive hour and injected to the HPLC system.

[5] = HPLC diluent, about 1.65 mg/ml, 11 hours
[6] = Acidic: 0.01M HCl, room temperature, about 1 hour
[7] = Basic: 0.01M NaOH, room temperature, about 1 hour
[8] = Oxidation: 10% hydrogen peroxide solution, room temperature, about 1 hour
[9] = Photolysis: in the diluent, UV light 48 hours

Nc1ncn([C@@H]2O[C@H](CO)[C@@H](O)[C@H]2O)c(=O)n1 [5-azacytidine, 4-amino-1-β-D-ribofuranosyl-1,3,5-s-triazine-2(1H)-one]
Area (%) of peak at RRT 2.05 [1, 5]: 0.24% | Total impurities by % area [1, 5]: 4.60% | Solution stability in HPLC diluent ([1]; dissolved in the HPLC diluent): stable within the average time period needed to complete the HPLC method | Solubility ([2]; in 5% Tween 80 in water): sparingly soluble | Solubility ([2]; in 5% dextrose in water): sparingly soluble | Solubility ([2]; in N-methyl-2-pyrrolidone): sparingly soluble | Solubility ([2]; in acetone): insoluble | Solubility ([2]; in dimethylsulfoxide (DMSO)): soluble | Solubility ([2]; in ethanol/water (50/50)): slightly soluble | Solubility ([2]; in ethanol): insoluble | Solubility ([2]; in methyl ethyl ketone): insoluble | Solubility ([2]; in normal saline): sparingly soluble | Solubility ([2]; in polyethylene glycol): slightly soluble | Solubility ([2]; in propylene glycol): slightly soluble | Solubility ([2]; in water saturated octanol): sparingly soluble | Solubility ([2]; in water): sparingly soluble | Area (%) at RRT 1.00 (5-azacytidine) [3, 6]: 71.96% | Area (%) of peak at RRT 0.33 [3, 6]: 0.17% | Area (%) of peak at RRT 0.63 [3, 6]: 21.1% | Area (%) of peak at RRT 1.18 [3, 6]: 5.35% | Area (%) of peak at RRT 1.65 [3, 6]: 0.14% | Area (%) of peak at RRT 2.01 [3, 6]: 1.10% | Total impurities (%) [3, 6]: 28.04% | Area (%) at RRT 1.00 (5-azacytidine) [3, 7]: 3.38% | Area (%) of peak at RRT 0.33 [3, 7]: 89.92% | Area (%) of peak at RRT 0.42 [3, 7]: 3.97% | Total impurities (%) [3, 7]: 96.62% | Area (%) at RRT 1.00 (5-azacytidine) [3, 8]: 97.18% | Area (%) of peak at RRT 0.33 [3, 8]: 0.84% | Area (%) of peak at RRT 0.42 [3, 8]: 0.06% | Area (%) of peak at RRT 0.63 [3, 8]: 0.23% | Area (%) of peak at RRT 2.01 [3, 8]: 1.62% | Total impurities (%) [3, 8]: 2.82% | Area (%) at RRT 1.00 (5-azacytidine) [3, 9]: 61.64% | Area (%) of peak at RRT 0.33 [3, 9]: 0.85% | Area (%) of peak at RRT 0.39 [3, 9]: 0.11% | Area (%) of peak at RRT 0.42 [3, 9]: 0.20% | Area (%) of peak at RRT 0.63 [3, 9]: 35.24% | Area (%) of peak at RRT 1.18 [3, 9]: 0.46% | Area (%) of peak at RRT 1.65 [3, 9]: 0.39% | Area (%) of peak at RRT 2.01 [3, 9]: 0.86% | Area (%) of peak at RRT 2.05 [3, 9]: 0.17% | Total impurities (%) [3, 9]: 38.36% | Area (%) at RRT 1.00 (5-azacytidine) ([3]; Storage (reference sample)): 96.72% | Area (%) of peak at RRT 0.63 ([3]; Storage (reference sample)): 1.55% | Area (%) of peak at RRT 2.01 ([3]; Storage (reference sample)): 1.37% | Area (%) of peak at RRT 2.05 ([3]; Storage (reference sample)): 0.24% | Total impurities (%) ([3]; Storage (reference sample)): 3.28% | Degradation in liquid state (HPLC analysis) ([3]; liquid state, Table 9): significant degradation | Solution stability in water ([4]; in water): unstable in water over prolonged time periods | Area (%) at RRT 1.00 (5-azacytidine) ([4]; 0 hours): 97.47% | Area (%) of peak at RRT 0.63 ([4]; 0 hours): 0.64% | Area (%) of peak at RRT 2.01 ([4]; 0 hours): 1.59% | Total impurities by % area ([4]; 0 hours): 2.53% | Area (%) at RRT 1.00 (5-azacytidine) ([4]; 1 hour): 95.97% | Area (%) of peak at RRT 0.63 ([4]; 1 hour): 2.16% | Area (%) of peak at RRT 2.01 ([4]; 1 hour): 1.57% | Total impurities by % area ([4]; 1 hour): 4.03% | Area (%) at RRT 1.00 (5-azacytidine) ([4]; 4 hours): 91.38% | Area (%) of peak at RRT 0.63 ([4]; 4 hours): 6.86% | Area (%) of peak at RRT 2.01 ([4]; 4 hours): 1.46% | Total impurities by % area ([4]; 4 hours): 8.62% | Area (%) at RRT 1.00 (5-azacytidine) ([4]; 8 hours): 83.61% | Area (%) of peak at RRT 0.63 ([4]; 8 hours): 14.68% | Area (%) of peak at RRT 1.70 ([4]; 8 hours): 0.23% | Area (%) of peak at RRT 2.01 ([4]; 8 hours): 1.36% | Total impurities by % area ([4]; 8 hours): 16.39% | Area (%) at RRT 1.00 (5-azacytidine) ([4]; 12 hours): 77.01% | Area (%) of peak at RRT 0.63 ([4]; 12 hours): 21.28% | Area (%) of peak at RRT 1.70 ([4]; 12 hours): 0.35% | Area (%) of peak at RRT 2.01 ([4]; 12 hours): 1.25% | Total impurities by % area ([4]; 12 hours): 22.99%
